Each compound was assayed against HCV NS5B polymerase (Hepatitis C virus genotype 1b, UniProt P26663) (assay: biochemical). Conditions: 20 nM enzyme, 0.6 μM GTP, 250 nM 5′biotinylated oligo (rG13)/poly rC, 75 min at 28° C.
Experimental: Compounds were tested for HCV polymerase inhibition. Assays were performed in a 96-well streptavidin-coated FlashPlate using 20 nM enzyme, 0.5 μCi of [α-^33P]GTP, 0.6 μM GTP, and 250 nM 5′biotinylated oligo (rG13)/poly rC in 20 mM Tris-HCl, pH 7.5, 5 mM MgCl2, 5 mM dithiothreitol, 0.1 g/L bovine serum albumin, and 100 U/mL RNAse inhibitor. The reaction was stopped by aspiration after 75 min at 28° C. and the plate was washed several times. After washing and drying the plate, incorporated radioactivity was counted using a Microbeta scintillation counter. IC50 values were calculated relative to the uninhibited control and inhibition data were fitted to a 4-parameter IC50 equation.

Chain of HCV NS5B polymerase (P26663 2420-3010): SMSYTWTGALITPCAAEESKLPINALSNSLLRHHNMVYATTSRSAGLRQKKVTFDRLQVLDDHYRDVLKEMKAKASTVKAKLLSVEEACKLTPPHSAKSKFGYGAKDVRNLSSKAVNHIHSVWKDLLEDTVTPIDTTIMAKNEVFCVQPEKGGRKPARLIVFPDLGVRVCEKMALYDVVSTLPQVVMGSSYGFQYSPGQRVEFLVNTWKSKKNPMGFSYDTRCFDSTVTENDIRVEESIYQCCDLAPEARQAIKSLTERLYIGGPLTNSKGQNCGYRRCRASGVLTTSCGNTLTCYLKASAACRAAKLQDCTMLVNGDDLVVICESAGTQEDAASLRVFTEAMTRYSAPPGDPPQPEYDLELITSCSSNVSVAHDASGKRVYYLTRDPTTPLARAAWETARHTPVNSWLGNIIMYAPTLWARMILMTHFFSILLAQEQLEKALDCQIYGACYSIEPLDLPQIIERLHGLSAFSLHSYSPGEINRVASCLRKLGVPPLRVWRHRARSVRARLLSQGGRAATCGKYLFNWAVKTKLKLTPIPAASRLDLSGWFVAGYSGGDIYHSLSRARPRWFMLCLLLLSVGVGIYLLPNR

| Structure (SMILES) | IC50 [µM] |
| --- | --- |
| CC(C)CCC1(C)CN(N2CCCC2)C(=O)C(C2=NS(=O)(=O)c3cc(NS(C)(=O)=O)ccc3N2)=C1O (centres unmarked) [Example 7, N-{3-[4-Hydroxy-5-methyl-5-(3-methyl-butyl)-2-oxo-1-pyrrolidin-1-yl-1,2,5,6-tetrahydro-pyridin-3-yl]-1,1-dioxo-1,4-dihydro-1λ^6-benzo[1,2,4]thiadiazin-7-yl}-methanesulfonamide] | < 0.1 |
| CC(C)CC1CC(O)=C(C2=NS(=O)(=O)c3cc(NS(C)(=O)=O)ccc3N2)C(=O)N1C1CCCC1 (centres unmarked) [Example 56, N-[3-(1-Cyclopentyl-4-hydroxy-6-isobutyl-2-oxo-1,2,5,6-tetrahydro-pyridin-3-yl)-1,1-dioxo-1,4-dihydro-1λ^6-benzo[1,2,4]thiadiazin-7-yl]-methanesulfonamide] | 1 to 4 |
| CC(C)(C)CCN1CC(C)(C2CCCC2)C(O)=C(C2=NS(=O)(=O)c3cc(NS(C)(=O)=O)ccc3N2)C1=O (centres unmarked) [Example 30, N-{3-[5-Cyclopentyl-1-(3,3-dimethyl-butyl)-4-hydroxy-5-methyl-2-oxo-1,2,5,6-tetrahydro-pyridin-3-yl]-1,1-dioxo-1,4-dihydro-1λ^6-benzo[1,2,4]thiadiazin-7-yl}-methanesulfonamide] | < 0.1 |
| CC(C)=CCC1CN(C2CCCC2)C(=O)C(C2=NS(=O)(=O)c3cc(NS(C)(=O)=O)ccc3N2)=C1O (centres unmarked) [Example 22, N-{3-[1-Cyclopentyl-4-hydroxy-5-(3-methyl-but-2-enyl)-2-oxo-1,2,5,6-tetrahydro-pyridin-3-yl]-1,1-dioxo-1,4-dihydro-1λ^6-benzo[1,2,4]thiadiazin-7-yl}-methanesulfonamide] | < 0.1 |
| CC(C)CCN1C(=O)C(C2=NS(=O)(=O)c3cc(NS(C)(=O)=O)ccc3N2)=C(O)C[C@@H]1c1ccccc1 [Example 49, N-{3-[4-Hydroxy-1-(3-methyl-butyl)-2-oxo-6(R)-phenyl-1,2,5,6-tetrahydro-pyridin-3-yl]-1,1-dioxo-1,4-dihydro-1λ^6-benzo[1,2,4]thiadiazin-7-yl}-methanesulfonamide] | 0.1 to 1 |
| CC1(c2ccccc2)CN(C2CCC2)C(=O)C(C2=NS(=O)(=O)c3cc(NS(C)(=O)=O)ccc3N2)=C1O (centres unmarked) [Example 32, N-[3-(1-Cyclobutyl-4-hydroxy-5-methyl-2-oxo-5-phenyl-1,2,5,6-tetrahydro-pyridin-3-yl)-1,1-dioxo-1,4-dihydro-1λ^6-benzo[1,2,4]thiadiazin-7-yl]-methanesulfonamide] | 1 to 4 |
| CC(C)[C@H]1CC(O)=C(C2=NS(=O)(=O)c3cc(NS(C)(=O)=O)ccc3N2)C(=O)N1Cc1ccc(F)c(Cl)c1 [Example 55, N-{3-[1-(3-Chloro-4-fluoro-benzyl)-4-hydroxy-6(R)-isopropyl-2-oxo-1,2,5,6-tetrahydro-pyridin-3-yl]-1,1-dioxo-1,4-dihydro-1λ^6-benzo[1,2,4]thiadiazin-7-yl}-methanesulfonamide] | < 0.1 |
| CC(C)CCN1CC(C)(C)C(O)=C(C2=NS(=O)(=O)c3cc(NS(C)(=O)=O)ccc3N2)C1=O [Example 11, N-{3-[4-Hydroxy-5,5-dimethyl-1-(3-methyl-butyl)-2-oxo-1,2,5,6-tetrahydro-pyridin-3-yl]-1,1-dioxo-1,4-dihydro-1λ^6-benzo[1,2,4]thiadiazin-7-yl}-methanesulfonamide] | 0.1 to 1 |

Second part, the compound after the results:

| IC50 [µM] | Structure (SMILES) |
| --- | --- |
| < 0.1 | CC(C)CCC1(C)C(O)=C(C2=NS(=O)(=O)c3cc(NS(C)(=O)=O)ccc3N2)C(=O)N2CCCC21 (centres unmarked) [Example 5, N-{3-[7-Hydroxy-8-methyl-8-(3-methyl-butyl)-5-oxo-1,2,3,5,8,8a-hexahydro-indolizin-6-yl]-1,1-dioxo-1,4-dihydro-1λ6-benzo[1,2,4]thiadiazin-7-yl}-methanesulfonamide] |
| 1 to 4 | CC(C)CCC1(COCc2ccccc2)CN(C2CCCC2)C(=O)C(C2=NS(=O)(=O)c3cc(NS(C)(=O)=O)ccc3N2)=C1O (centres unmarked) [Example 58, N-{3-[5-Benzyloxymethyl-1-cyclopentyl-4-hydroxy-5-(3-methyl-butyl)-2-oxo-1,2,5,6-tetrahydro-pyridin-3-yl]-1,1-dioxo-1,4-dihydro-1λ^6-benzo[1,2,4]thiadiazin-7-yl}-methanesulfonamide] |
| 1 to 4 | CC(C)CCC1CC(O)=C(C2=NS(=O)(=O)c3cc(NS(C)(=O)=O)ccc3N2)C(=O)N1C1CCCC1 (centres unmarked) [Example 53, N-{3-[1-Cyclopentyl-4-hydroxy-6-(3-methyl-butyl)-2-oxo-1,2,5,6-tetrahydro-pyridin-3-yl]-1,1-dioxo-1,4-dihydro-1λ^6-benzo[1,2,4]thiadiazin-7-yl}-methanesulfonamide] |
| 0.1 to 1 | CC#CCC1(C)CN(C2CCCC2)C(=O)C(C2=NS(=O)(=O)c3cc(NS(C)(=O)=O)ccc3N2)=C1O (centres unmarked) [Example 26, N-[3-(5-But-2-ynyl-1-cyclopentyl-4-hydroxy-5-methyl-2-oxo-1,2,5,6-tetrahydro-pyridin-3-yl)-1,1-dioxo-1,4-dihydro-1λ^6-benzo[1,2,4]thiadiazin-7-yl]-methanesulfonamide] |
| < 0.1 | CC(C)CCC1(CO)CN(C2CCCC2)C(=O)C(C2=NS(=O)(=O)c3cc(NS(C)(=O)=O)ccc3N2)=C1O (centres unmarked) [Example 54, N-{3-[1-Cyclopentyl-4-hydroxy-5-hydroxymethyl-5-(3-methyl-butyl)-2-oxo-1,2,5,6-tetrahydro-pyridin-3-yl]-1,1-dioxo-1,4-dihydro-1λ^6-benzo[1,2,4]thiadiazin-7-yl}-methanesulfonamide] |
| 1 to 4 | CC1(C)CN(C2CCCC2)C(=O)C(C2=NS(=O)(=O)c3cc(NS(C)(=O)=O)ccc3N2)=C1O [Example 18, N-[3-(1-Cyclopentyl-4-hydroxy-5,5-dimethyl-2-oxo-1,2,5,6-tetrahydro-pyridin-3-yl)-1,1-dioxo-1,4-dihydro-1λ^6-benzo[1,2,4]thiadiazin-7-yl]-methanesulfonamide] |

From US7834009B2, “4-hydroxy-5,6-dihydro-1H-pyridin-2-one compounds” (Anadys Pharmaceuticals, Inc., priority 2007, dated 2010)
